Measurements taken from patent US20070134731A1, “PROTEOMICS BASED METHOD FOR TOXICOLOGY TESTING” (priority 2002, published 2007).
Entries after “also recorded” stand apart in the source; their conditions may differ.

Legend:
rats [1] = assay: toxicant exposure of rats; modified proteins isolated from serum (immunoaffinity, 2D gel electrophoresis, LC/MS); format: in vivo; details: for modified proteins found in serum of treated animals, not found in the control group: rat serum, CCl4 0.1 and 1.0 mL/kg or ozone 0.8 and 2.0 ppm, specimens at 0-24 hours, anti-nitrotyrosine, chlorotyrosine, methionine sulfoxide resins, LC/MS
Protocol: Experimental groups consisted of three experimental and two control animals at each dose and specimens were collected at zero, one, two, four, eight, sixteen and twenty-four hours following ozone administration. In another experimental series, CCl4 was administered at a level of 0.1 and 1.0 mL/kg to rats to induce liver damage, and specimens were collected at time points as described above. […] Therefore, these high abundance proteins are preferably eliminated from serum samples prior to further processing.
In this experimental series, the specimens were purified by passing them over affinity resins containing antibodies against whole rat serum proteins and collecting the eluate. This purification methodology was effective in removing a significant amount of the high abundant serum proteins, which typically have a molecular weight in the range of 49-80 kiloDalton. […] Therefore, it was determined that concentration of the sample could be carried out very effectively by a process of molecular weight sieving which retained low molecular weight proteins (typically 50 kiloDalton and below) and excluded high molecular weight proteins. Such sieving was effectively accomplished utilizing a Superdex 75 column with a sample loading volume of 10% of the bed volume. Processes of this type have the advantage of being cheaper and faster than affirity resin based processes.
Once the concentration of high abundance serum proteins was decreased, the tissue proteins were purified from serum by immunoaffinity resins using antibodies to nitrotyrosine, chlorothyosine and methionine sulfoxide. […] Samples of interest were excised from the gel and those with sufficient concentration were analyzed by LC/MS.

rats [2] = details: in rats; cited from earlier work

SMILES | modified proteins found in serum of treated animals, not found in the control group (rats [1]) | organ toxicity (rats [2]) | organ damage (rats [1]; rats breathing ozone at 0.8 and 2.0 ppm)
ClC(Cl)(Cl)Cl [CCl4, carbon tetrachloride] | three out of the seven peptides from the CCl4 group were associated with mitochondria; also recorded: peroxiredoxin | known hepatotoxicant | 
O=C1CCC(=O)N1c1cc(Cl)cc(Cl)c1 [NDPS, N-(3,5-dichlorophenyl) succinimide] |  | toxic to the kidney | 
O=[O+][O-] [ozone] | four proteins of interest were found | toxic to the lungs | Lung damage was produced
